Assay results from DBAASP.
≈ marks a conversion by molar mass, not a printed value. Each block holds one compound with its values, some of them ahead of it.

What was measured:
Assay in all cases: ≥ marks a high value that may be exact or a test limit, other limits are often not marked, values filed in µg/mL are converted to µM
[1] = test system: Cronobacter sakazakii DPC 6440
[2] = test system: Listeria monocytogenes LO28
[3] = test system: Staphylococcus aureus ATCC 29737
[4] = test system: Klebsiella aerogenes ATCC 13048
[5] = test system: Bacillus subtilis ATCC 23857
[6] = test system: Pseudomonas aeruginosa ATCC 9027
[7] = test system: Escherichia coli ATCC 25922
[8] = test system: Candida albicans ATCC 10231
Escherichia coli BW25113 = test system: Escherichia coli BW25113
[9] = test system: Enterococcus faecalis CGMCC 1.595
[10] = test system: Staphylococcus aureus AS1.72
Escherichia coli AS1.349 = test system: Escherichia coli AS1.349
Bacillus cereus AS1.126 = test system: Bacillus cereus AS1.126
[11] = test system: Enterococcus faecium CGMCC 1.2334
[12] = test system: Pseudomonas aeruginosa CGMCC 1.860
[13] = test system: Lactococcus lactis AS1.1690
[14] = test system: Staphylococcus aureus USA 100
[15] = test system: Staphylococcus aureus USA 300
[16] = test system: Candida albicans ATCC 90028
[17] = test system: Escherichia coli ATCC 27325
[18] = test system: Saccharomyces cerevisiae ATCC 44774
[19] = test system: Streptococcus mutans ATCC 25175
[20] = test system: Pseudomonas putida ATCC 17426
[21] = test system: Staphylococcus aureus ATCC 15752
[22] = test system: Salmonella enterica subsp. enterica serovar Enteritidis ATCC 13076
[23] = test system: Cryptococcus neoformans ATCC 34881
[24] = test system: Bacillus subtilis ATCC 62037
[25] = test system: Staphylococcus epidermidis ATCC 12228

MIC [1]: ≥ 625 µM
MIC [2]: ≥ 156 µM
SMILES: CC[C@H](C)[C@H](NC(=O)[C@@H](N)Cc1c[nH]c2ccccc12)C(=O)N[C@@H](CCC(N)=O)C(=O)N1CCC[C@H]1C(=O)N[C@@H](C)C(=O)N[C@H](C(=O)N[C@@H](C)C(=O)N[C@H](C(=O)N[C@H](C(=O)N1CCC[C@H]1C(=O)N[C@@H](Cc1ccc(O)cc1)C(=O)N[C@H](C(=O)N[C@@H](C)C(=O)N[C@@H](Cc1ccc(O)cc1)C(=O)N[C@@H](CC(C)C)C(=O)O)C(C)C)[C@@H](C)CC)C(C)C)[C@@H](C)O [WIQPATAVIPYVAYL]

MIC [3]: 25.7 µM (≈ 50 µg/mL)
MIC [4]: 12.8 µM (≈ 25 µg/mL)
MIC [5]: 4.07 µM (≈ 7.93 µg/mL)
MIC [6]: 3.23 µM (≈ 6.3 µg/mL)
MIC [7]: 6.41 µM (≈ 12.5 µg/mL)
MIC [8]: > 25.7 µM
SMILES: CC(C)C[C@H](NC(=O)[C@H](CC(C)C)NC(=O)[C@H](CCCCN)NC(=O)[C@H](CCCCN)NC(=O)[C@H](CC(C)C)NC(=O)[C@H](CC(C)C)NC(=O)[C@H](CCCCN)NC(=O)[C@H](CCCCN)NC(=O)[C@H](CC(C)C)NC(=O)[C@H](CC(C)C)NC(=O)[C@H](CCCCN)NC(=O)[C@H](CCCCN)NC(=O)[C@H](CC(C)C)NC(=O)[C@@H](N)CC(C)C)C(=O)N[C@@H](CCCCN)C(=O)N[C@@H](CCCCN)C(N)=O [LLKKLLKKLLKKLLKK]

MIC (Escherichia coli BW25113): 16 µM (≈ 36 µg/mL)
SMILES: CC[C@H](C)[C@H](NC(=O)[C@@H]1CCCN1C(=O)[C@@H]1CCCN1C(=O)[C@H](CCCN=C(N)N)NC(=O)[C@H](Cc1ccccc1)NC(=O)[C@@H](N)CCCN=C(N)N)C(=O)N[C@@H](CCCN=C(N)N)C(=O)N[C@@H](CCCN=C(N)N)C(=O)N1CCC[C@H]1C(=O)N1CCC[C@H]1C(=O)N[C@H](C(=O)N[C@@H](CCCN=C(N)N)C(=O)N1CCC[C@H]1C(=O)N1CCC[C@H]1C(=O)N[C@@H](Cc1ccccc1)C(=O)N[C@@H](Cc1ccc(O)cc1)C(=O)N[C@@H](Cc1c[nH]c2ccccc12)C(=O)O)[C@@H](C)CC [RFRPPIRRPPIRPPFYW]

MIC [9]: ≥ 100 µM
MIC [10]: ≥ 100 µM
MIC (Escherichia coli AS1.349): ≥ 100 µM
MIC (Bacillus cereus AS1.126): ≥ 100 µM
MIC [11]: ≥ 100 µM
MIC [12]: ≥ 100 µM
MIC [13]: ≥ 100 µM
SMILES: C[C@H](NC(=O)[C@H](CCCN=C(N)N)NC(=O)[C@H](Cc1cnc[nH]1)NC(=O)[C@H](Cc1c[nH]c2ccccc12)NC(=O)[C@H](Cc1ccccc1)NC(=O)[C@H](CCCN=C(N)N)NC(=O)[C@@H](N)CCCN=C(N)N)C(=O)N[C@@H](Cc1cnc[nH]1)C(=O)O [RRFWHRAH]

MIC [14]: ≥ 100 µM
MIC [15]: ≥ 100 µM
MIC [6]: > 100 µM
MIC [16]: ≥ 100 µM
SMILES: CC(=O)N[C@@H](CCCCN)C(=O)N1CCC[C@H]1C(=O)N[C@H](C(N)=O)C(C)C [KPV]

MIC [14]: ≥ 100 µM
SMILES: NC(=O)[C@H](Cc1c[nH]c2ccccc12)NC(=O)[C@H](Cc1c[nH]c2ccccc12)NC(=O)[C@H](Cc1c[nH]c2ccccc12)NC(=O)[C@@H](N)Cc1c[nH]c2ccccc12 [WWWW]

MIC [1]: ≥ 625 µM
MIC [2]: ≥ 156 µM
SMILES: CC[C@H](C)[C@H](NC(=O)[C@@H](N)Cc1c[nH]c2ccccc12)C(=O)N[C@@H](CCC(N)=O)C(=O)N1CCC[C@H]1C(=O)N[C@@H](CCCCN)C(=O)N[C@H](C(=O)N[C@@H](CCCCN)C(=O)N[C@H](C(=O)N[C@H](C(=O)N1CCC[C@H]1C(=O)O)[C@@H](C)CC)C(C)C)[C@@H](C)O [WIQPKTKVIP]

MIC [9]: 1.56 µM (≈ 3.97 µg/mL)
MIC [10]: 3.13 µM (≈ 7.96 µg/mL)
MIC (Escherichia coli AS1.349): 6.25 µM (≈ 15.9 µg/mL)
MIC (Bacillus cereus AS1.126): 3.13 µM (≈ 7.96 µg/mL)
MIC [11]: 3.13 µM (≈ 7.96 µg/mL)
MIC [12]: 1.56 µM (≈ 3.97 µg/mL)
MIC [13]: 3.13 µM (≈ 7.96 µg/mL)
SMILES: CC(C)C[C@H](NC(=O)[C@H](CCCCN)NC(=O)[C@H](CCCN=C(N)N)NC(=O)[C@H](Cc1cnc[nH]1)NC(=O)[C@H](C)NC(=O)[C@H](CCCN=C(N)N)NC(=O)[C@H](Cc1cnc[nH]1)NC(=O)[C@H](Cc1c[nH]c2ccccc12)NC(=O)[C@H](Cc1ccccc1)NC(=O)[C@H](CCCN=C(N)N)NC(=O)[C@H](CCCN=C(N)N)NC(=O)[C@H](Cc1c[nH]c2ccccc12)NC(=O)[C@H](Cc1cnc[nH]1)NC(=O)[C@H](CCCN=C(N)N)NC(=O)[C@H](Cc1c[nH]c2ccccc12)NC(=O)[C@@H](NC(=O)[C@H](CCCCN)NC(=O)[C@@H](N)CO)C(C)C)C(=O)O [SKVWRHWRRFWHRAHRKL]

MIC [17]: 0.637 µM (≈ 1 µg/mL)
MIC [18]: 0.637 µM (≈ 1 µg/mL)
MIC [19]: 1.27 µM (≈ 2 µg/mL)
MIC [20]: 0.637 µM (≈ 1 µg/mL)
MIC [21]: 2.55 µM (≈ 4 µg/mL)
MIC [22]: 2.55 µM (≈ 4 µg/mL)
MIC [23]: 0.637 µM (≈ 1 µg/mL)
MIC [24]: 0.637 µM (≈ 1 µg/mL)
MIC [8]: 0.637 µM (≈ 1 µg/mL)
SMILES: CC(C)[C@H](NC(=O)[C@H](CCCCN)NC(=O)CNC(=O)CNC(=O)[C@H](CCC(N)=O)NC(=O)[C@H](CCCCN)NC(=O)CNC(=O)[C@H](CCCN=C(N)N)NC(=O)CNC(=O)[C@@H](N)CCCCN)C(=O)N[C@@H](CCCN=C(N)N)C(=O)N[C@@H](C)C(=O)N[C@@H](CCCCN)C(=O)N[C@@H](C)C(=O)N[C@@H](CCCCN)C(=O)O [KGRGKQGGKVRAKAK]

MIC [9]: 3.13 µM (≈ 5.39 µg/mL)
MIC [10]: 3.13 µM (≈ 5.39 µg/mL)
MIC (Escherichia coli AS1.349): 6.25 µM (≈ 10.8 µg/mL)
MIC (Bacillus cereus AS1.126): 3.13 µM (≈ 5.39 µg/mL)
MIC [11]: 3.13 µM (≈ 5.39 µg/mL)
MIC [12]: 3.13 µM (≈ 5.39 µg/mL)
MIC [13]: 6.25 µM (≈ 10.8 µg/mL)
SMILES: CC(C)[C@H](N)C(=O)N[C@@H](Cc1c[nH]c2ccccc12)C(=O)N[C@@H](CCCN=C(N)N)C(=O)N[C@@H](Cc1cnc[nH]1)C(=O)N[C@@H](Cc1c[nH]c2ccccc12)C(=O)N[C@@H](CCCN=C(N)N)C(=O)N[C@@H](CCCN=C(N)N)C(=O)N[C@@H](Cc1ccccc1)C(=O)N[C@@H](Cc1c[nH]c2ccccc12)C(=O)N[C@@H](Cc1cnc[nH]1)C(=O)N[C@@H](CCCN=C(N)N)C(=O)O [VWRHWRRFWHR]

MIC [3]: 20.8 µM (≈ 31.3 µg/mL)
MIC [25]: 1.33 µM (≈ 2 µg/mL)
MIC [6]: 41.4 µM (≈ 62.5 µg/mL)
MIC [7]: 10.3 µM (≈ 15.6 µg/mL)
MIC [8]: 82.9 µM (≈ 125 µg/mL)
SMILES: CC[C@H](C)[C@H](N)C(=O)N[C@@H](CCCN=C(N)N)C(=O)N[C@H](C(=O)N[C@@H](CCCCN)C(=O)N[C@H](C(=O)N[C@@H](CCCN=C(N)N)C(=O)N[C@H](C(=O)N[C@@H](CCCCN)C(=O)N[C@H](C(=O)N[C@@H](CCCN=C(N)N)C(=O)N[C@H](C(=O)N[C@@H](CCCCN)C(N)=O)C(C)C)[C@@H](C)CC)C(C)C)[C@@H](C)CC)C(C)C [IRVKIRVKIRVK]

MIC [17]: 0.812 µM (≈ 2 µg/mL)
MIC [18]: 0.812 µM (≈ 2 µg/mL)
MIC [19]: 0.812 µM (≈ 2 µg/mL)
MIC [20]: 0.812 µM (≈ 2 µg/mL)
MIC [21]: 0.812 µM (≈ 2 µg/mL)
MIC [22]: 0.406 µM (≈ 1 µg/mL)
MIC [23]: 0.812 µM (≈ 2 µg/mL)
MIC [24]: 0.812 µM (≈ 2 µg/mL)
MIC [8]: 0.812 µM (≈ 2 µg/mL)
SMILES: CC(C)C[C@H](NC(=O)CNC(=O)[C@H](C)NC(=O)[C@@H](N)CCCN=C(N)N)C(=O)N[C@@H](CCC(N)=O)C(=O)N[C@@H](Cc1ccccc1)C(=O)N1CCC[C@H]1C(=O)N[C@H](C(=O)NCC(=O)N[C@@H](CCCCN)C(=O)N[C@@H](CC(C)C)C(=O)N[C@@H](CC(C)C)C(=O)N[C@@H](CCCCN)C(=O)N[C@@H](CCCCN)C(=O)N[C@@H](CC(C)C)C(=O)N[C@@H](CC(C)C)C(=O)N[C@@H](CCCCN)C(=O)N[C@@H](CCCN=C(N)N)C(=O)N[C@@H](CC(C)C)C(=O)N[C@@H](CCCCN)C(=O)N[C@@H](CCCN=C(N)N)C(=O)O)C(C)C [RAGLQFPVGKLLKKLLKRLKR]

MIC [1]: ≥ 78.1 µM
MIC [2]: 4.88 µM (≈ 10.5 µg/mL)
SMILES: CC[C@H](C)[C@H](NC(=O)[C@@H](N)Cc1c[nH]c2ccccc12)C(=O)N[C@@H](CCC(N)=O)C(=O)N1CCC[C@H]1C(=O)N[C@@H](CCCCN)C(=O)N[C@H](C(=O)N[C@@H](CCCCN)C(=O)N[C@H](C(=O)N[C@H](C(=O)N1CCC[C@H]1C(=O)N[C@@H](Cc1c[nH]c2ccccc12)C(=O)N[C@@H](Cc1c[nH]c2ccccc12)C(=O)N[C@@H](Cc1c[nH]c2ccccc12)C(=O)N[C@@H](Cc1c[nH]c2ccccc12)C(=O)N[C@@H](Cc1c[nH]c2ccccc12)C(=O)O)[C@@H](C)CC)C(C)C)[C@@H](C)O [WIQPKTKVIPWWWWW]
